A short description of data set [1]: Effect of initial solution pH on rate of precipitation. The class given is physicochemical. The settings on record: room temperature. The text has this: A pharmaceutical composition of 4-[5-(2-amino-ethanesulfonyl)-isoquinolin-7-yl]-phenol monohydrochloride hemihydrate comprises a non-reducing sugar and a pH adjusting agent. […] […]. Also, the rate at which precipitation takes place is pH dependent.

Data set [2] concerns the target T1, Active human recombinant Akt1 (full-length) (Homo sapiens, UniProt P31749).
T1 construct: Active human recombinant Akt1 (full-length) purified from Sf9 insect cells; purchased Upstate Biotechnology, Inc; host or cells: Sf9 insect cells
In words: Akt1 Phosphorylation Assay (competitive fluorescence polarization immunoassay, FPIA). The settings on record: 20 μM ATP, 60 min at room temperature, n=3; read-out: IC50, inhibition of Akt1 phosphorylation. It is filed as biochemical. The text has this:
Akt1 Phosphorylation Assay
The assay measures the phosphorylation of PKC alpha pseudo-substrate peptide by a Competitive Fluorescence Polarization Immunoassay (FPIA). The assay indirectly measures the concentration of phospho-peptide product formed in a reaction by measuring the change in the intensity of polarized light emitted from a fluorescently-labeled tracer peptide when displaced from a phospho-specific antibody by the phospho-peptide product. Calibration with a standard curve yields quantitative results.
Active human recombinant Akt1 (full-length) purified from Sf9 insect cells is obtained from Upstate Biotechnology, Inc. Peptide Substrate (M.W.1561) is purchased. […]
After 60 min at room temperature the reaction is terminated by adding 25 μL of Quench/Detection Mix containing 260 mM EDTA, 3.4 nM Fluorescein Tracer, and 7.5 nM Anti-Phosphoserine Antibody. The plates are incubated in darkness at room temperature for more than 3 hr, and then fluorescence polarization (at λex=485 nm, […]) is read using a Tecan Ultra plate reader. The concentration of phosphorylated product per well is calculated from millipolarization (mP) units using a prepared peptide competitor dilution series as a standard curve.
On the technique in general: Fluorescence polarisation rises when a labelled molecule tumbles more slowly, as on binding a larger partner.

Data set [3] deals with Phospho-GSK3b (pGSK3b), a target of Akt in cells. Briefly: Cell-based ELISA (cELISA) for detection of phospho-GSK3b in U87MG cells. The settings on record: Homo sapiens, U-87 MG, 2 hr treatment, n=8, read-out: IC50, inhibition of pGSK3b. The method, then:
Cell-Based ELISA (cELISA) for the Detection of Phospho-GSK3b (pGSK3b)
Exponentially grown U87MG cells derived from a human glioblastoma are seeded into 96-well plates and incubated overnight at 37° C. with 5% CO2. Ten concentrations of the compound of Example 1 are prepared from a 4 mM stock (in 100% DMSO) by 1:2 serial dilutions into the culture media. Equal volume of each of the serial dilutions is added directly to the cells. Treatment is stopped 2 hr later. At the end of the treatment, the culture media is removed, and the cells are washed once with ice-cold phosphate-buffered saline (PBS). The cells are fixed in PREFER according to vendor's procedure, followed by rinses in PBS/0.1% SDS and PBS/0.1% Triton X-100®, then overnight incubation in SEA Block Blocking buffer. The blocking step is followed by an overnight incubation of the cells with a rabbit antibody against pGSK3b/Ser9, followed by a goat anti-rabbit IgG. The pGSK3b is detected by SuperSignal ELISA Femto following the vendor's procedure.
A general note: In an ELISA, binding on a coated surface is turned into a signal by an enzyme label.

In data set [4] the test system is Phospho-GSK3b (pGSK3b). Briefly: In vivo target inhibition by a single IV injection, U87MG tumors in nude mice. The settings on record: Mus musculus, U-87 MG, U87MG glioblastoma tumors, single IV injection of 25 mg/kg, at 1 hour, read-out: inhibition of pGSK3b in tumor. Here is the method: In Vivo Target Inhibition Studies
In Vivo Target Inhibition by a Single IV Injection:
Exponentially growing U87MG cells derived from a human glioblastoma are implanted subcutaneously in the rear flank of nude mice. When the tumors reach the size of 200-250 mm^3, compounds are administered to the animals by a single IV injection in a dose-response study or in a time-course study. At the end of each treatment, animals are asphyxiated with CO2. Tumors are harvested by surgical excision, quickly frozen in liquid nitrogen and stored at −80° C. until analysis. Sera are prepared from blood harvested from the heart by cardiac puncture and stored at −80° C. until analysis.
The Akt inhibitor is extracted from serum with acetonitrite/methanol and analyzed alongside an internal standard by LC/MS/MS. Tumors are homogenized in 2 volumes of a lysis buffer containing 25 mM Tris (pH 7.5), Roche complete protease inhibitors, and 1 mM vanadate with Powergen 125 homogenizer, then sequentially passed thorough an 18 gauge needle and a 23 gauge needle. Soluble cytoplasmic extracts are collected from the supernatant fraction after the lysates are centrifuged for 30 minutes at 20,000×g. Protein concentrations in the cytoplasmic extracts are determined with a BCA kit. Phospho-GSK3b (pGSK3b) in the soluble extracts is analyzed with the ELISA Kit.

For data set [5], the system named is U87MG cells derived from a human glioblastoma. In words: In vivo tumor growth inhibition, U87MG glioblastoma xenograft. Also on record: species or system nude mice. To be noted: continuous infusion of 27 mg/kg/day for 4 days, measured at the end of the assay. The method, then:
(§1) In Vivo Tumor Growth Inhibition Studies
(§2) Exponentially growing U87MG cells derived from a human glioblastoma or H1155 cells derived from human non-small cell lung cancer are implanted subcutaneously in the rear flank of nude mice. Three days after tumor cell implants, microsurgery is performed to cannulate catheter for continuous infusion via jugular vein. Example 1, formulated in D5W (5% dextrose in water) at various concentrations, is then infused into mice next day at 40 μL/hr for 4 days. Tumors are measured twice weekly until the study is terminated, usually at 24 days after the initial implants. Tumor growth inhibition is calculated by dividing the average tumor volume of the treated group by that of the vehicle-treated group.

In data set [6] the test system is H1155 cells derived from human non-small cell lung cancer. In words: In vivo tumor growth inhibition, H1155 non-small cell lung cancer xenograft. Set-up: species or system nude mice. To be noted: continuous infusion of 24 mg/kg/day for 4 days, measured at the end of the assay. Here is the method: as §1, §2

Structures can show the parent of a compound that is named as a salt.

By IC50 is commonly meant the concentration needed to halve the response being measured. In general, inhibition refers to the drop in the measured response relative to a control, in per cent.

T1 sequence (P31749 whole entry): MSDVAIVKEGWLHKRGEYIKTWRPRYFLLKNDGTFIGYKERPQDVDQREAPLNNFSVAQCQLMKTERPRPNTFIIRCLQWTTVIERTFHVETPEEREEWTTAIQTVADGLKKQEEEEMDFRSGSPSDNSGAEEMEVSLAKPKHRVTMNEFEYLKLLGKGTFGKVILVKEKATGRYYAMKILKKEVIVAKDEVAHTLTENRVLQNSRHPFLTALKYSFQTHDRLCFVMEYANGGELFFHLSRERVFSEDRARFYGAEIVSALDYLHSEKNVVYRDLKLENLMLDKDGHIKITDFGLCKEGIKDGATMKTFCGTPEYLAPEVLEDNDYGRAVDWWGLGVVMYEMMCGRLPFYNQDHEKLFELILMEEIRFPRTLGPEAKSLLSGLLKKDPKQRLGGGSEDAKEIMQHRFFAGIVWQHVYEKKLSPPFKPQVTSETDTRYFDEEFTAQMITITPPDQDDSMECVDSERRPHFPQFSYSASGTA

Regarding `Cl.Cl.NCCS(=O)(=O)c1cc(-c2ccc(O)cc2)cc2cnccc12.NCCS(=O)(=O)c1cc(-c2ccc(O)cc2)cc2cnccc12.O` [4-[5-(2-Amino-ethanesulfonyl)-isoquinolin-7-yl]-phenol Monohydrochloride Hemihydrate], the “Precipitation (ppt)” value in data set [1] (0.001 N HCl/3% mannitol, initial pH 4.20, approx. 15 mg/mL) is recorded as “ppt after 24 hr”; in data set [1] (0.0025 N HCl/3% mannitol, initial pH 3.91, approx. 15 mg/mL) it was “ppt after 36 hr”; in data set [1] (0.005 N HCl/3% mannitol, initial pH 3.58, approx. 15 mg/mL), “ppt after 48 hr”; in data set [1] (0.01 N HCl/3% mannitol, initial pH 3.19, approx. 15 mg/mL), “no ppt up to 96 hours”; in data set [1] (0.05 N HCl/3% mannitol, initial pH 1.68, approx. 15 mg/mL) it was “no ppt up to 96 hours”.
With `NCCS(=O)(=O)c1cc(-c2ccc(O)cc2)cc2cnccc12` [Example 1, 4-[5-(2-Amino-ethanesulfonyl)-isoquinolin-7-yl]-phenol di-hydrochloride Salt], the IC50 in data set [2] amounted to 0.045 µM; in data set [3], 2.04 µM. Besides, the inhibition at 25 mg/kg in data set [4] is 76%. In addition, the tumor growth inhibition in data set [5] was 50%; in data set [6], 63%.

For the origin of these results see patent publication US7998977B2, “Inhibitors of AKT (protein kinase B)” (Eli Lilly and Company, priority 2006, dated 2011).
